Source: US20260042762A1 (Kymera Therapeutics, Inc., priority 2018, published 2026)
Like-named read-outs stand apart in the source and are kept apart here.

Molecular target: T1, MerTK (Homo sapiens, UniProt Q12866)
T1 construct: endogenous in cells; host or cells: Jurkat cells
T1 sequence (Q12866 21-999): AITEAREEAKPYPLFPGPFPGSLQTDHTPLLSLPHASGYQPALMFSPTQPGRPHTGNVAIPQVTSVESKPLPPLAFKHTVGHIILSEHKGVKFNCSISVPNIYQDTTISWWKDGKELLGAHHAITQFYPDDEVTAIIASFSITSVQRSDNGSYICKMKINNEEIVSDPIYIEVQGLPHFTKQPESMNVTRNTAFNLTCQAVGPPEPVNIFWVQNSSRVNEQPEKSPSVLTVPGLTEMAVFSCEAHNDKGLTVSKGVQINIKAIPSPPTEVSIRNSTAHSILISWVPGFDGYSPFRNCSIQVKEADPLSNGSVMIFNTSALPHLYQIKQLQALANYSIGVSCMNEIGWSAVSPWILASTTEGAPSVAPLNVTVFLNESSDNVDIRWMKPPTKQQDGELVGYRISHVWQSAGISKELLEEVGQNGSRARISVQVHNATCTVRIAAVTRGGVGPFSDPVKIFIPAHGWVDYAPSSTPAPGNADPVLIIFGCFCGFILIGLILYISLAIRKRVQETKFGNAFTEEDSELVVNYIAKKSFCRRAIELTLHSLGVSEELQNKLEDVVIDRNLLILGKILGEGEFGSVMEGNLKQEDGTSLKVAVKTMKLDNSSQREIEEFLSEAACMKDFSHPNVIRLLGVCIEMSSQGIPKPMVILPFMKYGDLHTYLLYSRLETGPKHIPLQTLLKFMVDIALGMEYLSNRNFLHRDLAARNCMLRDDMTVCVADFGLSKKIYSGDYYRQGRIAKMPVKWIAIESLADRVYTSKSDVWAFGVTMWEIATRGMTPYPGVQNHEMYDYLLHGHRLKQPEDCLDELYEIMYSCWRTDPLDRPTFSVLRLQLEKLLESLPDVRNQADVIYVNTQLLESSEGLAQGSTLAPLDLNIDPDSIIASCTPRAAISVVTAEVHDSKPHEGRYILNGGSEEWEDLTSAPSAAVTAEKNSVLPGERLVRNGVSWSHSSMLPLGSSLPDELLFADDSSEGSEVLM
Experiment: MerTk degradation in Jurkat cells (Western blot)
Format: cell-based
Settings: 0.001-1 μM, 4 hour-incubation at 37° C., read-out: Jurkat Max % MerTK Degradation
Procedure, shortened: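 MerTK degradation was read by near-infrared Western blot, normalized to actin, in BCA-quantified lysates of Jurkat cells exposed to 0.001-1 μM compound for 4 h at 37 °C.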

Row | SMILES | Dmax (Jurkat, 4 h) [%] | Dmax [%]
1 | Cn1c(=O)n([C@H]2CCC(=O)NC2=O)c2ccc(CCCCN3CC(N4CCN(Cc5ccc(-c6cn([C@H]7CC[C@H](O)CC7)c7nc(NCCC(F)(F)F)ncc67)cc5)CC4)C3)cc21 [I-119, 3-[3-methyl-2-oxo-5-[4-(3-[4-[(4-[7-[trans-4-hydroxycyclohexyl]-2-[(3,3,3-trifluoropropyl)amino]-7H-pyrrolo[2,3-d]pyrimidin-5-yl]phenyl)methyl]piperazin-1-yl]azetidin-1-yl)butyl]-2,3-dihydro-1H-1,3-benzodiazol-1-yl]piperidine-2,6-dione; bis(formic acid)] | > 50 | 
2 | CC(c1ccc(-c2cn([C@H]3CC[C@H](O)CC3)c3nc(NCCC(F)(F)F)ncc23)cc1)N1CCN(CCCCOCCCc2ccc3c(c2)n(C)c(=O)n3C2CCC(=O)NC2=O)CC1 (stereo partly drawn) [I-81, 3-[3-methyl-2-oxo-5-[3-(4-[4-[1-(4-[7-[trans-4-hydroxycyclohexyl]-2-[(3,3,3-trifluoropropyl)amino]-7H-pyrrolo[2,3-d]pyrimidin-5-yl]phenyl)ethyl]piperazin-1-y1]butoxy)propyl]-2,3-dihydro-1H-1,3-benzodiazol-1-yl]piperidine-2,6-dione] | > 50 | 
3 | Cn1c(=O)n([C@H]2CCC(=O)NC2=O)c2ccc(CCCOCCCN3CCN(Cc4ccc(-c5cn([C@H]6CC[C@](C)(O)CC6)c6nc(NCCC(F)(F)F)ncc56)cc4)CC3)cc21 [I-142, 3-[3-methyl-2-oxo-5-[3-(3-[4-[(4-[7-[trans-4-hydroxy-4-methylcyclohexyl]-2-[(3,3,3-trifluoropropyl)amino]pyrrolo[2,3-d]pyrimidin-5-yl]phenyl)methyl]piperazin-1-yl]propoxy)propyl]-1,3-benzodiazol-1-yl]piperidine-2,6-dione] | > 50 | 
4 | O=C1CC[C@H](n2c3ccccc3c3c(CCCOCCOCCN4CCN(Cc5ccc(-c6cn([C@H]7CC[C@H](O)CC7)c7nc(NCCC(F)(F)F)ncc67)cc5)CC4)ccnc32)C(=O)N1 [I-126, 3-(4-[3-[2-(2-[4-[(4-[7-[trans-4-hydroxycyclohexyl]-2-[(3,3,3-trifluoropropyl)amino]-7H-pyrrolo[2,3-d]pyrimidin-5-yl]phenyl)methyl]piperazin-1-yl]ethoxy)ethoxy]propyl]-9H-pyrido[2,3-b]indol-9-yl)piperidine-2,6-dione] | > 50 | 
5 | CN1C(=O)CC[C@H](n2c(=O)n(C)c3cc(CCCOCCOCCN4CCN(Cc5ccc(-c6cn([C@H]7CC[C@H](O)CC7)c7nc(NCCC(F)(F)F)ncc67)cc5)CC4)ccc32)C1=O [I-105, 1-methyl-3-(3-methyl-2-oxo-5-[3-[2-(2-[4-[(4-[7-[trans-4-hydroxycyclohexyl]-2-[(3,3,3-trifluoropropyl)amino]-7H-pyrrolo[2,3-d]pyrimidin-5-yl]phenyl)methyl]piperazin-1-yl]ethoxy)ethoxy]propyl]-2,3-dihydro-1H-1,3-benzodiazol-1-yl)piperidine-2,6-dione] | 20 to 50 | 
6 | Cn1c(=O)n([C@H]2CCC(=O)NC2=O)c2ccc(COCCN3CCN(Cc4ccc(-c5cn([C@H]6CC[C@H](O)CC6)c6nc(NCCC(F)(F)F)ncc56)cc4)CC3)cc21 [I-151, trans-3-[3-methyl-2-oxo-5-[(2-[4-[(4-[7-[4-hydroxycyclohexy1]-2-[(3,3,3-trifluoropropyl)amino]pyrrolo[2,3-d]pyrimidin-5-y1]phenyl)methyl]piperazin-1-yl]ethoxy)methyl]-1,3-benzodiazol-1-yl]piperidine-2,6-dione; formic acid] | > 50 | 
7 | Cc1ncsc1-c1ccc(CNC(=O)[C@@H]2C[C@@H](O)CN2C(=O)[C@@H](NC(=O)C2(F)CC2)C(C)(C)C)c(OCCOCCOCCN2CCN(Cc3ccc(-c4cn([C@H]5CC[C@H](O)CC5)c5nc(NCCC(F)(F)F)ncc45)cc3)CC2)c1 [I-214, (2S,4R)-1-[(2S)-2-[(1-fluorocyclopropyl)formamido]-3,3-dimethylbutanoyl]-4-hydroxy-N-[[4-(4-methyl-1,3-thiazol-5-yl)-2-[2-[2-(2-[4-[(4-[7-[trans-4-hydroxycyclohexyl]-2-[(3,3,3-trifluoropropyl)amino]pyrrolo[2,3-d]pyrimidin-5-yl]phenyl)methyl]piperazin-1-yl]ethoxy)ethoxy]ethoxy]phenyl]methyl]pyrrolidine-2-carboxamide] | > 50 | 
8 | Cn1c(=O)n([C@H]2CCC(=O)NC2=O)c2ccc(CCCOCCOCCOCCNCc3ccc(-c4cn([C@H]5CC[C@H](O)CC5)c5nc(NCCC(F)(F)F)ncc45)cc3)cc21 [I-47, 3-[3-methyl-2-oxo-5-[1-(4-[7-[trans-4-hydroxycyclohexy1]-2-[(3,3,3-trifluoropropyl)amino]-7H-pyrrolo[2,3-d]pyrimidin-5-yl]phenyl)-5,8,11-trioxa-2-azatetradecan-14-y1]-2,3-dihydro-1H-1,3-benzodiazol-1-yl]piperidine-2,6-dione] | > 50 | 
9 | Cn1c(=O)n([C@H]2CCC(=O)NC2=O)c2ccc(CCCN3CCC(N4CCN(Cc5ccc(-c6cn([C@H]7CC[C@H](O)CC7)c7nc(NCCC(F)(F)F)ncc67)cc5)CC4)CC3)cc21 [I-117, 3-[3-methyl-2-oxo-5-[3-(4-[4-[(4-[7-[trans-4-hydroxycyclohexy1]-2-[(3,3,3-trifluoropropyl)amino]-7H-pyrrolo[2,3-d]pyrimidin-5-yl]phenyl)methyl]piperazin-1-yl]piperidin-1-y1)propyl]-2,3-dihydro-1H-1,3-benzodiazol-1-yl]piperidine-2,6-dione] | > 50 | 
10 | Cc1ncsc1-c1ccc(CNC(=O)[C@@H]2C[C@@H](O)CN2C(=O)[C@@H](NC(=O)CCCCCCN2CCN(Cc3ccc(-c4cn([C@H]5CC[C@H](O)CC5)c5nc(NCCC(F)(F)F)ncc45)cc3)CC2)C(C)(C)C)cc1 [I-162, (2S,4R)-1-[(2S)-3,3-dimethyl-2-(7-[4-[(4-[7-[trans-4-hydroxycyclohexyl]-2-[(3,3,3-trifluoropropyl)amino]pyrrolo[2,3-d]pyrimidin-5-yl]phenyl)methyl]piperazin-1-yl]heptanamido)butanoyl]-4-hydroxy-N-[[4-(4-methyl-1,3-thiazol-5-yl)phenyl]methyl]pyrrolidine-2-carboxamide] | < 20 | 
11 | Cn1c(=O)n([C@H]2CCC(=O)NC2=O)c2ccc(C#CCOCCOCCN3CCN(Cc4ccc(-c5cn([C@H]6CC[C@H](O)CC6)c6nc(NCCC(F)(F)F)ncc56)cc4)CC3)cc21 [I-82, 3-(3-methyl-2-oxo-5-[3-[2-(2-[4-[(4-[7-[trans-4-hydroxycyclohexy1]-2-[(3,3,3-trifluoropropyl)amino]-7H-pyrrolo[2,3-d]pyrimidin-5-yl]phenyl)methyl]piperazin-1-yl]ethoxy)ethoxy]prop-1-yn-1-yl]-2,3-dihydro-1H-1,3-benzodiazol-1-yl)piperidine-2,6-dione] | > 50 | 
12 | C[C@@H](Nc1ncc2c(-c3ccc(CN4CCN(CCCOCCCc5ccc6c(c5)n(C)c(=O)n6C5CCC(=O)NC5=O)CC4)cc3)cn([C@H]3CC[C@H](O)CC3)c2n1)C(F)F (stereo partly drawn) [I-215] | > 50 | 
13 | Cn1c(=O)n([C@H]2CCC(=O)NC2=O)c2ccc(CCCOCCOCCOCCN3CCN(Cc4ccc(-c5nn([C@H]6CC[C@H](O)CC6)c6nc(NCCC(F)(F)F)ncc56)cc4)CC3)cc21 [I-63, 3-[3-methyl-2-oxo-5-(3-[2-[2-(2-[4-[(4-[1-[trans-4-hydroxycyclohexyl]-6-[(3,3,3-trifluoropropyl)amino]-1H-pyrazolo[3,4-d]pyrimidin-3-yl]phenyl)methyl]piperazin-1-yl]ethoxy)ethoxy]ethoxy]propyl)-2,3-dihydro-1H-1,3-benzodiazol-1-yl]piperidine-2,6-dione; formic acid] | > 50 | 
14 | CCCCNc1ncc2c(-c3ccc(CN4CCN(CCCC(=O)NCCCOCCCOCCCc5cccc6c5n(C)c(=O)n6C5CCC(=O)NC5=O)CC4)cc3)cn([C@H]3CC[C@H](O)CC3)c2n1 (stereo partly drawn) [I-8, Trans-4-[4-([4-[2-(butylamino)-7-[4-hydroxycyclohexyl]-7H-pyrrolo[2,3-d]pyrimidin-5-yl]phenyl]methyl)piperazin-1-yl]-N-[3-(3-[3-[1-(2,6-dioxopiperidin-3-yl)-3-methyl-2-oxo-2,3-dihydro-1H-1,3-benzodiazol-4-yl]propoxy]propoxy)propyl]butanamide formic acid] |  | > 50
15 | CCCCNc1ncc2c(-c3ccc(CN4CCN(CCOCCOCCCc5ccc6c(c5)n(C)c(=O)n6[C@H]5CCC(=O)NC5=O)CC4)cc3)cn([C@H]3CC[C@H](O)CC3)c2n1 [I-42, 3-[5-[3-(2-[2-[4-([4-[2-(butylamino)-7-[trans-4-hydroxycyclohexyl]-7H-pyrrolo[2,3-d]pyrimidin-5-yl]phenyl]methyl)piperazin-1-yl]ethoxy]ethoxy)propyl]-3-methyl-2-oxo-2,3-dihydro-1H-1,3-benzodiazol-1-yl]piperidine-2,6-dione; formic acid] | > 50 | 
